Measurements published in PubChem BioAssay (NCI).
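Briefly, cells in 96-well plates were exposed to five compound concentrations for 48 h, and endpoints were estimated by linear interpolation. TGI marks complete inhibition of growth.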 Where a SMILES comes first, the peptide text is derived from it. The star is where a group is joined. Boc = CC(C)(C)OC(=O)*; OSu = O=C1CCC(=O)N1O*

Legend:
Assay in all cases: growth of human tumour cells (NCI), 48 h
OVCAR-4 ovarian = test system: OVCAR-4 ovarian
SF-539 CNS = test system: SF-539 CNS
SW-620 colon = test system: SW-620 colon
HT29 colon = test system: HT29 colon
KM20L2 colon = test system: KM20L2 colon
DMS 114 small cell lung = test system: DMS 114 small cell lung
DLD-1 colon = test system: DLD-1 colon
DMS 273 small cell lung = test system: DMS 273 small cell lung
M19-MEL melanoma = test system: M19-MEL melanoma
LXFL 529 NSCLC = test system: LXFL 529 NSCLC
XF 498 CNS = test system: XF 498 CNS
HOP-18 NSCLC = test system: HOP-18 NSCLC
SNB-78 CNS = test system: SNB-78 CNS

Compound | TGI (OVCAR-4 ovarian) [µM] | TGI (SF-539 CNS) [µM] | TGI (SW-620 colon) [µM] | TGI (HT29 colon) [µM] | also measured
C[C@]12CC[C@H]3[C@@H](CC=C4C[C@@H](N5CCCC5)CC[C@@]43C)[C@@H]1C[C@H](N1CCOCC1)[C@@H]2O | > 100 | > 100 | > 100 | > 100 | –
CC[C@H](O)[C@H](C)C=C1SCCCS1 | > 100 | – | > 100 | > 100 | –
COC(=O)C1C/C(=C/N(C)C)C(=S)N1 (centres undefined) | > 100 | – | > 100 | > 100 | –
Nn1c(COc2cccc(OCc3n[nH]c(=S)n3N)c2)n[nH]c1=S | > 100 | > 100 | > 100 | > 100 | –
CN(C)CCNC(=O)c1cccc2c(NCCN(C)C)c3ccccc3nc12 | 8.68 | 11.3 | > 23.4 | 5.34 | –
[N-]=[N+]=C1N=CN=C1c1ncn[nH]1 | > 100 | 52.2 | > 100 | > 100 | –
COC(=O)/C=C\n1c(C)cc(=O)[nH]c1=O | > 100 | > 100 | > 100 | > 100 | –
COC(=O)NCCc1[nH]nc2c1C(=O)C=C(N1CCOCC1)C2=O | > 100 | > 100 | > 100 | > 100 | –
O=S(=O)(O)c1cc(O)c2c(N=Cc3ccccc3O)cc(S(=O)(=O)O)cc2c1 | > 100 | > 100 | > 100 | > 100 | –
CCCCCCCCOC1C(O)C(O)C(O)C(O)C12CO2 (centres undefined) | – | > 100 | > 100 | > 100 | –
CC(NC(=O)C(NC(=O)OC(C)(C)C)C(C)C)C(=O)NCC(=O)ON1C(=O)CCC1=O (stereo not drawn) (Boc-Val-Ala-Gly-OSu; configuration not given here) | – | > 100 | > 100 | > 100 | –
Nc1nc(Cl)c(N)c(NCC2(CO)CC(OCc3ccccc3)C2)n1 (centres undefined) | > 100 | > 100 | > 100 | > 100 | –
N#CC1=C(N)n2c(s/c(=C\c3ccc(Cl)cc3)c2=O)=C(c2nc3ccccc3[nH]2)C1c1ccc(Cl)cc1 (centres undefined) | 5.22 | 3.56 | 3.03 | – | TGI (KM20L2 colon): 6.06 µM; TGI (DMS 114 small cell lung): 4.37 µM; TGI (DLD-1 colon): 15.4 µM; TGI (DMS 273 small cell lung): 6.23 µM; TGI (M19-MEL melanoma): 9.15 µM; TGI (LXFL 529 NSCLC): 4.58 µM; TGI (XF 498 CNS): 3.38 µM
CCCSc1ccc2[nH]c(N3C(=O)/C(=C/c4ccco4)N=C3c3ccccc3)cc2c1 | – | 25 | > 50 | > 50 | –
CC(=O)[C@@]1(C)CC2(CCN(C)CC2)OC1C (some centres undefined) | > 100 | > 100 | > 100 | > 100 | –
COC(=O)C(Cc1c[nH]c2ccccc12)NC(=O)C(Cc1c[nH]c2ccccc12)NC(=O)C(Cc1c[nH]c2ccccc12)NC(=O)C(Cc1c[nH]c2ccccc12)NC(=O)C(Cc1c[nH]c2ccccc12)NC(=O)C(Cc1c[nH]c2ccccc12)NC(=O)OC(C)(C)C (centres undefined) (Boc-WWWWWW-OMe; configuration not given here) | > 100 | – | > 100 | > 100 | –
C[n+]1c(-c2ccc(/C=N/NC(=N)N/N=C/c3ccc(-c4cn5cc(Cl)ccc5[n+]4C)cc3)cc2)cn2cc(Cl)ccc21 | > 100 | > 100 | > 100 | > 100 | –

Compound | TGI (OVCAR-4 ovarian) [µM] | TGI (SF-539 CNS) [µM] | TGI (SW-620 colon) [µM] | TGI (HT29 colon) [µM] | also measured
COc1cc(C2c3cc4c(cc3[C@@H](Nc3ccccc3)C3COC[C@H]23)OCO4)cc(OC)c1O (some centres undefined) | > 100 | 4.35 | > 100 | 45.5 | –
O=CN1CCN(C(=O)c2ccc(Cl)cc2Cl)C1=S | > 100 | > 100 | > 100 | > 100 | –
COC(=O)CCC(=O)NC1=C(Nc2ccc(OC)cc2)C(=O)c2ccccc2C1=O | 24.7 | 27.9 | 29.7 | 30.1 | –
CN(C)CC(C)(C)/C(=N\Nc1ccccc1)c1ccccc1 | > 100 | 63.4 | > 100 | > 100 | TGI (KM20L2 colon): 36.7 µM; TGI (HOP-18 NSCLC): > 100 µM; TGI (DMS 114 small cell lung): > 100 µM; TGI (DLD-1 colon): > 100 µM; TGI (DMS 273 small cell lung): > 100 µM; TGI (M19-MEL melanoma): > 100 µM; TGI (SNB-78 CNS): > 100 µM; TGI (LXFL 529 NSCLC): 51.4 µM
CC(O)c1cc2c(s1)C(=O)c1sccc1C2=O (centres undefined) | 0.344 | – | – | 0.597 | –
CCC12CCCN(Cc3ccccc3)C1c1c([nH]c3ccccc13)C(C(=O)OC)C2 (centres undefined) | > 10 | > 10 | > 10 | > 10 | –
O=C(O)c1cc2ccccc2c(N=Nc2ccc(S(=O)(=O)Nc3nccs3)cc2)c1O | > 100 | > 100 | > 100 | > 100 | –
COc1cc2c(c(OC)c1OC)-c1ccc(SC)c(=O)cc1[C@@H](NCc1ccc(C#N)cc1)CC2 | > 100 | 0.00582 | > 100 | – | TGI (KM20L2 colon): 0.00388 µM; TGI (DMS 114 small cell lung): 0.00534 µM; TGI (M19-MEL melanoma): > 100 µM; TGI (SNB-78 CNS): > 100 µM; TGI (LXFL 529 NSCLC): > 100 µM
NC(N)=N/N=C/c1nc2n(c1[N+](=O)[O-])CCS2 | 41 | > 100 | > 100 | > 100 | –
CCCCc1ccc(Nc2nc3c(ncn3C3CC(O)C(CN=[N+]=[N-])O3)c(=O)[nH]2)cc1 (centres undefined) | > 100 | – | > 100 | > 100 | –
COC(=O)C1=C(C(=O)OC)C(C(=O)c2ccc(Br)cc2)N2N=C(c3ccc(Cl)cc3)C=CC12 (centres undefined) | > 100 | – | > 100 | – | –
Cc1c(Cl)nc(Nc2nc3ccccc3[nH]2)nc1Cl | 76.5 | > 100 | > 100 | 89 | –
O=[N+]([O-])C1CC/C(=N/O)c2nonc21 (centres undefined) | > 10 | > 10 | > 10 | > 10 | –
CCCN1C(=O)CC(C)N(Cc2ccccc2Cl)C1=S (centres undefined) | > 100 | 36 | > 100 | > 100 | –
Cc1cnc2sn(-c3ccc(Oc4ccccc4)cc3)c(=O)c2c1 | 32.9 | 31.7 | 70.7 | 39.6 | –
C1CCC2(CC1)O[C@@H]1[C@@H](O2)[C@@H](O[C@H]2O[C@@H]3COC4(CCCCC4)O[C@H]3[C@@H]3OC4(CCCCC4)O[C@@H]23)O[C@@H]2COC3(CCCCC3)O[C@@H]12 | > 100 | > 100 | > 100 | > 100 | –
